Laboratory results: ChEMBL document CHEMBL1144728, “Pyrazolo-pyrimidines: a novel heterocyclic scaffold for potent and selective p38 alpha inhibitors” (Bioorg Med Chem Lett, 2008)

What was measured:
Liver microsomes [1] = experiment: Metabolic stability in human liver microsomes assessed as metabolic rate per mg of protein; assay type: ADME, Microsome
Liver microsomes [2] = experiment: Metabolic stability in rat liver microsomes assessed as metabolic rate per mg of protein; assay type: ADME, Microsome
[3] = Oral bioavailability in mouse at 10 mg/kg; assay type: ADME, organism-based; conditions: in vivo
[4] = Clearance in mouse at 10 mg/kg, po; assay type: ADME, organism-based; parameters: dose 10 mg/kg, route oral; conditions: in vivo
Mus musculus = experiment: Volume of distribution in mouse at 10 mg/kg, po; assay type: ADME, organism-based; parameters: dose 10 mg/kg, route oral; conditions: in vivo
[5] = Terminal half life in mouse at 10 mg/kg, po; assay type: ADME, organism-based; parameters: dose 10 mg/kg, route oral; conditions: in vivo

Stability (Liver microsomes [1]): 0 nmol/min
Stability (Liver microsomes [2]): 0.005 nmol/min/mg
bioavailability [3]: 60%
CL/F [4]: 5 mL/min/kg
Vd (Mus musculus): 1.3 L/kg
half-life [5]: 4.1 h
Compound: Cc1ccc(C(=O)Nc2ccon2)cc1Nc1ncnc2c1cnn2-c1ccccc1
